Data as given in patent US10842794B2, “Use of Sigma-1 receptor agonist compounds” (MTA TÁMOGATOTT KUTATÓCSOPORTOK IRODÁJA, priority 2014, dated 2020).

How the values were obtained:
[1] = system: mice with unilateral ureter obstruction (UUO); test: Mice model of unilateral ureteral obstruction (UUO): Masson's trichrome, tubulointerstitial fibrosis; assay type: in vivo; conditions: fluvoxamine 20 mg/bwkg/day for one week, 7 days after UUO
[2] = system: collagen I and collagen III mRNA in NRK49F cells; test: TGFβ-induced collagen-1 and collagen-3 production, quantitative RT-PCR; assay type: cell-based, rat; conditions: 20 μM/L fluvoxamine
[3] = system: FN1, COL1A1 and MMP2 mRNA in HTM-5 cells; test: Fibrotic marker mRNA expression in HTM-5 cells (RT-PCR); assay type: cell-based, human; conditions: normalised to RN18S
[4] = system: rat model of bleomycin-induced lung fibrosis; test: Rat model of bleomycin induced pulmonary fibrosis: αSMA protein in lung, western blot; assay type: in vivo; conditions: fluvoxamine 20 mg/bwkg/day, three weeks after bleomycin
Experimental: (Bars represent Mean±SEM, n=6/group).
For the induction of pulmonary fibrosis male Wistar rats were anesthetized. Bleomycin (5 mg/bwkg in a 300 μl solution of isotonic saline) or 300 μl isotonic saline was administered into the trachea using a 30G needle.
Animals were randomly divided into 4 groups of 6 rats each as follows (i)—control group was sham operated, received isotonic saline per os daily for 3 weeks, (ii) vehicle treated group: received isotonic saline per os daily for 3 weeks after the induction of lung fibrosis, (iii) fluvoxamine treated group: received fluvoxamine (20 mg/bwkg/day per os for 3 weeks after the induction of lung fibrosis), (iv) fluvoxamine+NE100 treated group: received fluvoxamine (20 mg/bwkg/day; per os) and 1 mg/bwkg/day NE100 (i.p. for 3 weeks after the induction of lung fibrosis. […]
Tissue samples were lysed in buffer containing leupeptin, aprotinin, Triton X-100, Tris-HCl, Ethylene glycol-bis (2-aminoethylether),N,N,N′,N′-tetraacetic-acid, NaF, Phenylmethylsulphonylfluoride and Na-orthovanadate (each substance were purchased from Sigma-Aldrich Co., St. Louis, Mo., USA) and centrifuged to pellet nuclei and large cellular fragments. Protein concentration of the supernatants was determined by Bradford assay (Bio-Rad Laboratories, Hercules, Calif., USA). […] Bands were analyzed with Quantity One software version 4.6.9. […]

[5] = system: Streptozotocin induced type 1 diabetic rats; test: Rat model of streptozotocin induced diabetic nephropathy: metabolic and renal parameters; assay type: in vivo; conditions: for Blood Creatinine / Blood Glucose / Blood Urea Nitrogen / FeNa / Fructosamine / GFR / Urinary albumin excretion: Mean±SEM
Experimental: All substances were purchased from Sigma-Aldrich Ltd. (Budapest, Hungary). Diabetes was induced in male Wistar rats by 65 mg/bwkg streptozotocin (STZ) i.v. (dissolved in 0.1 M citrate buffer; pH 4.5). Animals were considered diabetic if blood glucose concentrations increased to 15 mmol/L within 72 h after STZ injection and remained elevated. Animals were randomly divided into groups (n=10-12/group) and received by per os (i) fluvoxamine (20 mg/bwkg/day) for 7 weeks; (ii) fluvoxamine (20 mg/bwkg/day) for 2 weeks from the 5th week of diabetes, (iii) fluvoxamine (2 mg/bwkg/day) for 2 weeks from the 5th week of diabetes; or (iv) vehicle (isotonic saline). […] Non-diabetic age-matched control animals were injected with citrate buffer and sacrificed after 7 weeks (n=8-10/group).
Before and during and at the end of treatment period rats were placed into metabolic cages to collect 24-hour urinary samples. After 2 weeks of treatment all rats were anesthesized, blood and urinary samples were collected and the kidneys were removed, weighed and a section fixed in formalin (4%, pH=7.4) for histology and the remained immediately snap-frozen for further investigations.
Serum metabolic (glucose, fructoseamine, total and HDL-cholesterol, triglycerides) and renal functional parameters from rat serum (sodium, potassium, creatinine, BUN, GFR and proteinuria) were determined with commercially available kits on a Hitachi 912 photometric chemistry analyzer. Random urine and 24-hour urine samples were also measured. Urinary protein to creatinine ratio was also calculated.

[6] = system: Streptozotocin induced type 1 diabetic rats; test: Diabetic rat kidney: αSMA protein level, western blot; assay type: in vivo; conditions: fluvoxamine, predominantly the dose of 20 mg
[7] = system: Streptozotocin induced type 1 diabetic rats; test: Diabetic rat kidney: Masson's trichrome staining, tubulointerstitial fibrosis; assay type: in vivo
[8] = system: Streptozotocin induced type 1 diabetic rats; test: Diabetic rat kidney: Sirius Red staining of ECM components; assay type: in vivo; conditions: long term 7-weeks fluvoxamine treatment
NRK49F myofibroblasts = conditions: all applied concentrations, even the smallest 1 μM
Experimental: In 6-well plates of NRK49F myofibroblasts (6×10^6 cells/well) TGF-β (1 nM) induced production of fibrillar components of the extracellular matrix was measured by Sirius Red staining. To investigate the effect of S1R agonist compounds a group of cells was treated for 48 hours with the various S1R agonists. Solvent treated cells served as controls. (Bars represent mean±SEM)
To investigate the deposition of fibrillar collagen Sirius Red staining was performed. 48 hours after the treatment with TGF-β and said compounds the NRK-49F cells were incubated for 10 minutes with Kahle fixative solution. 0.1% Sirius Red (Direct Red 80, Sigma-Aldrich) in 1.2% picric acid was added for each well and plates were incubated for 30 minutes at RT. The unconnected dye molecules were washed with distilled water. The bound Sirius Red dye was eluated with 0.1 M NaOH solution, absorbance was recorded at 540 nm in a Hidex Chameleon Microplate Reader (Triathler, Plate Chameleion, 300SL Lablogic Systems, Inc., Brandon, Fla., USA) used MikroWin program. Vehicle treated cells served as controls.

[9] = system: human trabecular meshwork-5 (HTM-5) cells; test: Actin cytoskeleton rearrangement in HTM-5 cells (phalloidin F-actin staining); assay type: cell-based; conditions: 24 h, 20 ng/mL PDGF and 10 μM FLU
[10] = system: Streptozotocin induced type 1 diabetic rats; test: Diabetic rat kidney: PAS staining, mesangial matrix expansion; assay type: in vivo
[11] = D7FLU: diabetic rats, fluvoxamine 20 mg/bwkg/day per os for 7 weeks
[12] = D+FLU2: diabetic rats, fluvoxamine 2 mg/bwkg/day per os for 2 weeks from the 5th week of diabetes
[13] = D+FLU: diabetic rats, fluvoxamine 20 mg/bwkg/day per os for 2 weeks from the 5th week of diabetes

With COCCCC/C(=N\OCCN)c1ccc(C(F)(F)F)cc1 [fluvoxamine, 2-{[(E)-{5-Methoxy-1-[4-(trifluoromethyl)phenyl]pentylidene}amino]oxy}ethanamine] the “tubulointerstitial fibrosis after UUO (Masson's trichrome)” value [1] was “decreased tubulointerstitial fibrosis”, the “mRNA expression of collagen-1 and collagen-3” value ([2]; by 24 hours) was “remarkably diminished” and the “collagen production (collagen-1 and collagen-3 mRNA)” value ([2]; by 48 hours) was “returned to the level of normal controls”. The “COL1A1 (collagen1a1) mRNA expression” value ([3]; 20 ng/ml PDGF plus 5 μM FLU) was “inhibit the expression of each fibrosis marker tested in a dose dependent manner”, the “FN1 (fibronectin) mRNA expression” value ([3]; 20 ng/ml PDGF plus 5 μM FLU) was “inhibit the expression of each fibrosis marker tested in a dose dependent manner” and the “MMP2 (matrix metalloproteinase 2) mRNA expression” value ([3]; 20 ng/ml PDGF plus 10 μM FLU) was “inhibit the expression of each fibrosis marker tested in a dose dependent manner”. The “bleomycin-induced αSMA production in the lung” value [4] was “successfully reduced bleomycin-induced αSMA production nearly to the level of controls”, the “Blood Creatinine” value [5, 11] was 27.0 ± 2.24 µmol/L and the “Blood Glucose” value [5, 11] was 50.31 ± 3.7 ^ mmol/L. The “Blood Urea Nitrogen” value [5, 11] was 17.3 ± 1.49 mmol/L, the FeNa [5, 11] was 0.40 ± 0.03 % and the Fructosamine [5, 11] was 276 ± 11.2 µmol/L. The GFR [5, 11] was 6.77 ± 1.15 mL/min/100 g, the Urinary albumin excretion [5, 11] was 20.8 ± 9.51 mg/mL and the “Blood Creatinine” value [5, 12] was 31.8 ± 2.94 µmol/L. For the same compound, the “Blood Glucose” value [5, 12] was 26.45 ± 3.11 mmol/L, the “Blood Urea Nitrogen” value [5, 12] was 18.8 ± 1.68 mmol/L and the FeNa [5, 12] was 0.62 ± 0.12 %. The Fructosamine [5, 12] was 242 ± 12.8^ μmol/L, the GFR [5, 12] was 4.73 ± 0.69^ mL/min/100 g and the Urinary albumin excretion [5, 12] was 24.3 ± 5.77^ mg/mL. The “Blood Creatinine” value [5, 13] was 34.5 ± 2.74 µmol/L, the “Blood Glucose” value [5, 13] was 36.6 ± 2.62 mmol/L and the “Blood Urea Nitrogen” value [5, 13] was 17.3 ± 2.30 mmol/L. The FeNa [5, 13] was 0.90 ± 0.23 %, the Fructosamine [5, 13] was 252 ± 18.5^ μmol/L and the GFR [5, 13] was 3.73 ± 0.49^ mL/min/100 g. The Urinary albumin excretion [5, 13] was 21.5 ± 4.99 mg/mL, the “renal function in diabetic rats” value ([5]; fluvoxamine treatment, specifically the long-term (7-weeks) treatment) was “remarkably improved renal function, prevented GFR decline” and the “αSMA protein level in kidney of diabetic rats” value [6] was “reduced αSMA protein level by the half”. The “diabetes induced tubulointerstitial fibrosis (Masson's trichrome)” value ([7]; fluvoxamine 20 mg 7 weeks, 20 mg 2 weeks, 2 mg 2 weeks per os) was “ameliorated the diabetes induced tubulointerstitial fibrosis”, the “renal structure (Masson's trichrome)” value ([7]; long-term (7-weeks) fluvoxamine 20 mg/bwkg/day) was “restored almost the normal renal structure” and the “diabetes induced excessive ECM accumulation (Sirius Red)” value [8] was “significantly reduced”. The “TGFβ-induced ECM production (Sirius Red)” value (NRK49F myofibroblasts) was “significantly inhibited TGFβ-induced ECM production”, the “fibrotic rearrangement and active production of actin filaments” value [9] was “blocked” and the “extent of mesangial matrix expansion (PAS)” value ([10]; all doses of fluvoxamine) was “remarkably diminished”. The “prevention of renal tissue damage (PAS), comparison of regimens” value ([10]; long-term (7-weeks) fluvoxamine treatment) was “most effective in preventing renal tissue damage”.
